Test results published in US8680275B2, “Fused heterocyclic compounds as orexin receptor modulators” (Janssen Pharmaceutica NV, priority 2009, dated 2014).

Columns and labels:
[1] = target: human orexin-2 receptor (Homo sapiens (Human), UniProt O43614); experiment: Human orexin 2 receptor radioligand binding ([3H]-EMPA competition); conditions: HEK293 cells stably expressing human orexin-2 receptor; [3H]-EMPA 5 nM final; read-out: OR-2 Ki
How it was run: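 Competition binding on HEK293 cells stably expressing human orexin-2 receptor, using 5 nM final [3H]-EMPA in PBS, compounds 0.1 nM to 10 μM (DMSO ≤0.1%). 60 min at room temperature, then filtration and scintillation counting; nonspecific binding defined with 10 μM of a reference antagonist.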

[2] = target: human orexin 1 receptor (Homo sapiens (Human), UniProt O43613); experiment: Human orexin 1 receptor radioligand binding ([3H]-SB674042 competition); conditions: CHO cells stably expressing human orexin 1 receptor; [3H]-SB674042 4 nM final; read-out: OR-1 Ki
How it was run: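 CHO cells stably expressing human OX1R incubated 60 min at room temperature with [3H]-SB674042 and compounds (7 concentrations, 0.1 nM–10 μM; DMSO ≤0.1%) in PBS. Nonspecific binding defined with 10 μM of a reference urea antagonist; bound radioactivity measured by filtration and scintillation counting.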

human orexin-2 receptor, sequence (O43614 whole entry): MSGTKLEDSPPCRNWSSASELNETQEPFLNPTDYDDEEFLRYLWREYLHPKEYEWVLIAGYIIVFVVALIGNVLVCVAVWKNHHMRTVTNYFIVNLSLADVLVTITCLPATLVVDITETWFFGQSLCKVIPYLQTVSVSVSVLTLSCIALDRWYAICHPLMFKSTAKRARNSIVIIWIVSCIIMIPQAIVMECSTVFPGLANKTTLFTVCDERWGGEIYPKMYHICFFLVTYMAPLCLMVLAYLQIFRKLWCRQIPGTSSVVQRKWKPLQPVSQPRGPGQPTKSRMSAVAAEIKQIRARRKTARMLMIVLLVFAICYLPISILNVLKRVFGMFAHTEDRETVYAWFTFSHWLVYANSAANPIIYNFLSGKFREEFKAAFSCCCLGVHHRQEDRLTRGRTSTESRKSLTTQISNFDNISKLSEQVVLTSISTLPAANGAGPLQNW
human orexin 1 receptor, sequence (O43613 whole entry): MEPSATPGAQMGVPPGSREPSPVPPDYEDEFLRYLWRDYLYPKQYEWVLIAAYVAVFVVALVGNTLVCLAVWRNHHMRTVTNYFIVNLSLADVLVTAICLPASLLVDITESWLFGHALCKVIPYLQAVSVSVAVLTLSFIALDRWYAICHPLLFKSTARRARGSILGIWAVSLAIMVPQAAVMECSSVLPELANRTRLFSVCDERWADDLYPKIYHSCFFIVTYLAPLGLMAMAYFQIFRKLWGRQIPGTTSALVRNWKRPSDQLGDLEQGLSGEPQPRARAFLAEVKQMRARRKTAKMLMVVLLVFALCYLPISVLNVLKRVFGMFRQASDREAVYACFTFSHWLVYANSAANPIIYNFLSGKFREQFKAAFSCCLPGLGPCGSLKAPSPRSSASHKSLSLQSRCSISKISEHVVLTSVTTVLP

Row | Compound | Ki [1] [nM] | Ki [2] [nM]
1 | Cc1cc(C)nc(N2C[C@H]3CCN(C(=O)c4ccccc4-c4ccccc4)C[C@H]32)n1 [Example 18, (1S,6R)Biphenyl-2-yl-[8-(4,6-dimethyl-pyrimidin-2-yl)-3,8-diaza-bicyclo[4.2.0]oct-3-yl]-methanone] | 763 | 3830
2 | COc1ccccc1C(=O)N1CC2CN(c3cnc4ccccc4n3)C2C1 (stereo not shown) [Example 54, 2-{3-[(2-Methoxyphenyl)carbonyl]-3,6-diazabicyclo[3.2.0]hept-6-yl}quinoxaline] | 2420 | 3450
3 | Cc1cc(C)nc(N2C[C@@H]3CCN(C(=O)c4ccccc4-n4cccc4)C[C@@H]32)n1 [Example 7, (1R,6S)[8-(4,6-Dimethyl-pyrimidin-2-yl)-3,8-diaza-bicyclo[4.2.0]oct-3-yl]-(2-pyrrol-1-yl-phenyl)-methanone] | 15 | 371
4 | Cc1ccnc(N2CC3CN(C(=O)c4ccccc4-c4ccccc4)CC32)n1 (stereo not shown) [Example 61, 3-(Biphenyl-2-ylcarbonyl)-6-(4-methylpyrimidin-2-yl)-3,6-diazabicyclo[3.2.0]heptane] | 980 | 10000
5 | CCOc1ccc2ccccc2c1C(=O)N1CC2CN(c3nc(OC)cc(OC)n3)C2C1 (stereo not shown) [Example 64, 6-(4,6-Dimethoxypyrimidin-2-yl)-3-[(2-ethoxynaphthalen-1-yl)carbonyl]-3,6-diazabicyclo[3.2.0]heptane] | 109 | 808
6 | Cc1ccc(-n2nccn2)c(C(=O)N2CC3CN(c4nccc(-c5ccccc5)n4)C3C2)c1 (stereo not shown) [Example 69] | 61 | 128
7 | Cc1cc(C)nc(N2C[C@@H]3CCN(C(=O)c4cccnc4C(F)(F)F)C[C@@H]32)n1 [Example 89, (1R,6S)-8-(4,6-Dimethylpyrimidin-2-yl)-3-{[2-(trifluoromethyl)pyridin-3-yl]carbonyl}-3,8-diazabicyclo[4.2.0]octane] | 220 | 10000
8 | O=C(c1ccccc1-c1cccs1)N1C[C@@H]2CN(c3nccc(-c4ccccc4)n3)[C@@H]2C1 (single isomer, unassigned) [Example 55, 6-(4-Phenylpyrimidin-2-yl)-3-[(2-thiophen-2-ylphenyl)carbonyl]-3,6-diazabicyclo[3.2.0]heptane] | 92 | 274
9 | Cc1ccnc(N2CC3CN(C(=O)c4ccccc4Br)CC32)n1 (stereo not shown) [Example 59, (2-Bromo-phenyl)-[6-(4-methyl-pyrimidin-2-yl)-3,6-diaza-bicyclo[3.2.0]hept-3-yl]-methanone] | 9320 | 10000
10 | Cc1ccc(S(=O)(=O)N2CC[C@H]3CN(c4cnc5ccccc5n4)[C@H]3C2)c(C)c1 [Example 20, (1R,6S)2-[3-(2,4-Dimethyl-benzenesulfonyl)-3,8-diaza-bicyclo[4.2.0]oct-8-yl]-quinoxaline] | 2110 | 379
11 | COc1ccc(-n2nccn2)c(C(=O)N2CC[C@H]3CN(c4cc(N(C)C)ccn4)[C@H]3C2)c1 [Example 150, 2-[(1R,6S)-3-{[5-Methoxy-2-(2H-1,2,3-triazol-2-yl)phenyl]carbonyl}-3,8-diazabicyclo[4.2.0]oct-8-yl]-N,N-dimethylpyridin-4-amine] | 532 | 10000
12 | COc1cccc(OC)c1C(=O)N1CCC2CN(c3nc4ccccc4o3)C2C1 (stereo not shown) [Example 16, (8-Benzooxazol-2-yl-3,8-diaza-bicyclo[4.2.0]oct-3-yl)-(2,6-dimethoxy-phenyl)-methanone] | 284 | 460
13 | Cc1cc(C)nc(N2C[C@@H]3CCN(C(=O)c4c(F)cccc4-c4ncccn4)C[C@@H]32)n1 [Example 22, (1R,6S)[8-(4,6-Dimethyl-pyrimidin-2-yl)-3,8-diaza-bicyclo[4.2.0]oct-3-yl]-(2-fluoro-6-pyrimidin-2-yl-phenyl)-methanone] | 29 | 473
14 | Cc1nccnc1N1C[C@@H]2CCN(C(=O)c3ccccc3-n3nccn3)C[C@@H]21 [Example 105, (1R,6S)-8-(3-Methylpyrazin-2-yl)-3-{[2-(2H-1,2,3-triazol-2-yl)phenyl]carbonyl}-3,8-diazabicyclo[4.2.0]octane] | 10000 | 10000
15 | COc1ccnc(N2CC3CN(C(=O)c4ccccc4-c4ccccc4)CC32)n1 (stereo not shown) [Example 63, 3-(Biphenyl-2-ylcarbonyl)-6-(4-methoxypyrimidin-2-yl)-3,6-diazabicyclo[3.2.0]heptane] | 392 | 10000

The remaining lines, values ahead:

Row | Ki [1] [nM] | Ki [2] [nM] | Compound
16 | 28 | 23 | O=C(c1cccc(F)c1-n1nccn1)N1CC[C@H]2CN(c3cnc4ccccc4n3)[C@H]2C1 [Example 116, 2-[(1R,6S)-3-{[3-Fluoro-2-(2H-1,2,3-triazol-2-yl)phenyl]carbonyl}-3,8-diazabicyclo[4.2.0]oct-8-yl]quinoxaline]
17 | 210 | 10000 | Cc1ccnc(N2C[C@@H]3CCN(C(=O)c4cc(F)ccc4-n4nccn4)C[C@@H]32)c1 [Example 127, (1R,6S)-3-{[5-Fluoro-2-(2H-1,2,3-triazol-2-yl)phenyl]carbonyl}-8-(4-methylpyridin-2-yl)-3,8-diazabicyclo[4.2.0]octane]
18 | 45 | 95 | O=C(c1cccc(F)c1-n1nccn1)N1CC[C@H]2CN(c3nc4cc(Cl)ccc4o3)[C@H]2C1 [Example 123, 5-Chloro-2-[(1R,6S)-3-{[3-fluoro-2-(2H-1,2,3-triazol-2-yl)phenyl]carbonyl}-3,8-diazabicyclo[4.2.0]oct-8-yl]-1,3-benzoxazole]
19 | 258 | 5840 | Cc1cnc(C)c(N2C[C@@H]3CCN(C(=O)c4ccccc4-n4nccn4)C[C@@H]32)n1 [Example 96, (1R,6S)-8-(3,6-Dimethylpyrazin-2-yl)-3-{[2-(2H-1,2,3-triazol-2-yl)phenyl]carbonyl}-3,8-diazabicyclo[4.2.0]octane]
20 | 1300 | 10000 | Cc1cc(C)nc(N2C[C@@H]3CCN(C(=O)c4cnoc4-c4ccccc4)C[C@@H]32)n1 [Example 176, (1R,6S)-8-(4,6-Dimethylpyrimidin-2-yl)-3-[(5-phenylisoxazol-4-yl)carbonyl]-3,8-diazabicyclo[4.2.0]octane]
21 | 1500 | 10000 | Cc1cc(C)nc(N2C[C@@H]3CCN(C(=O)c4ncccc4-n4ccnn4)C[C@@H]32)n1 [Example 182, (1R,6S)-8-(4,6-Dimethylpyrimidin-2-yl)-3-{[3-(1H-1,2,3-triazol-1-yl)pyridin-2-yl]carbonyl}-3,8-diazabicyclo[4.2.0]octane]
22 | 73 | 3300 | Cc1cccc(N2C[C@@H]3CCN(C(=O)c4ccccc4-n4nccn4)C[C@@H]32)n1 [Example 125, (1R,6S)-8-(6-Methylpyridin-2-yl)-3-{[2-(2H-1,2,3-triazol-2-yl)phenyl]carbonyl}-3,8-diazabicyclo[4.2.0]octane]
23 | 91 | 793 | Cc1cccc(C(=O)N2CC[C@H]3CN(c4cc(C(F)(F)F)ccn4)[C@H]3C2)c1-n1nccn1 [Example 147, (1R,6S)-3-{[3-Methyl-2-(2H-1,2,3-triazol-2-yl)phenyl]carbonyl}-8-[4-(trifluoromethyl)pyridin-2-yl]-3,8-diazabicyclo[4.2.0]octane]
24 | 10000 | 10000 | Cc1nccnc1N1C[C@@H]2CCN(C(=O)c3c(F)cccc3-n3nccn3)C[C@@H]21 [Example 106, (1R,6S)-3-{[2-Fluoro-6-(2H-1,2,3-triazol-2-yl)phenyl]carbonyl}-8-(3-methylpyrazin-2-yl)-3,8-diazabicyclo[4.2.0]octane]
25 | 82 | 687 | Cc1cc(C)nc(N2C[C@@H]3CCN(C(=O)c4cccc(F)c4-c4ncccn4)C[C@@H]32)c1 [Example 153, (1R,6S)-8-(4,6-Dimethylpyridin-2-yl)-3-[(3-fluoro-2-pyrimidin-2-ylphenyl)carbonyl]-3,8-diazabicyclo[4.2.0]octane]
26 | 230 | 10000 | Cc1nc(N)cc(N2C[C@@H]3CCN(C(=O)c4cc(F)ccc4-n4nccn4)C[C@@H]32)n1 [Example 191, 6-[(1R,6S)-3-{[5-Fluoro-2-(2H-1,2,3-triazol-2-yl)phenyl]carbonyl}-3,8-diazabicyclo[4.2.0]oct-8-yl]-2-methylpyrimidin-4-amine]
27 | 680 | 10000 | Cc1cc(N2C[C@@H]3CCN(C(=O)c4cc(F)ccc4-n4nccn4)C[C@@H]32)nc(N)n1 [Example 186, 4-[(1R,6S)-3-{[5-Fluoro-2-(2H-1,2,3-triazol-2-yl)phenyl]carbonyl}-3,8-diazabicyclo[4.2.0]oct-8-yl]-6-methylpyrimidin-2-amine]
28 | 370 | 10000 | O=C(c1cc(F)ccc1-n1nccn1)N1CC[C@H]2CN(c3nccc(C(F)(F)F)n3)[C@H]2C1 [Example 94, (1R,6S)-3-{[5-Fluoro-2-(2H-1,2,3-triazol-2-yl)phenyl]carbonyl}-8-[4-(trifluoromethyl)pyrimidin-2-yl]-3,8-diazabicyclo[4.2.0]octane]
29 | 6500 | 10000 | Cc1cc(C)nc(N2C[C@@H]3CCN(C(=O)c4c(C)noc4-c4snnc4C)C[C@@H]32)n1 [Example 180, (1R,6S)-8-(4,6-Dimethylpyrimidin-2-yl)-3-{[3-methyl-5-(4-methyl-1,2,3-thiadiazol-5-yl)isoxazol-4-yl]carbonyl}-3,8-diazabicyclo[4.2.0]octane]
